Data set [1] concerns the target T1, human 5-HT1A receptor (Homo sapiens, UniProt P08908).
T1 sequence (P08908 1-422): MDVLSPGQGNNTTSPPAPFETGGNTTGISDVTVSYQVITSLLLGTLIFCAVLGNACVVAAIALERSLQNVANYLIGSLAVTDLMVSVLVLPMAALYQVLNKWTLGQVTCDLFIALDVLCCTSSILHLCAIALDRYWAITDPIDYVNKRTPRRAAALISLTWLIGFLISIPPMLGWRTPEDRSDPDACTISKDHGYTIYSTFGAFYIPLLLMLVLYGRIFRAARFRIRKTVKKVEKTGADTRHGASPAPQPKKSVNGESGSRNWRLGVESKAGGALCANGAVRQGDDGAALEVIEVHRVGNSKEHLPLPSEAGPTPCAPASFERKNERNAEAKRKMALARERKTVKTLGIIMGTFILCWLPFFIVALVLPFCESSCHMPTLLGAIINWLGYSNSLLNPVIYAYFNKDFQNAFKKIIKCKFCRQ
The experiment in a line: Radioligand binding assay, [3H]-8-OH-DPAT, HEK293 cell membranes.

The target in data set [2] is human D2L receptor (Homo sapiens, UniProt P14416). Nature of the data set: Radioligand binding assay, [3H]-raclopride, HEK293 cell membranes.
Chain of human D2L receptor (P14416 whole entry): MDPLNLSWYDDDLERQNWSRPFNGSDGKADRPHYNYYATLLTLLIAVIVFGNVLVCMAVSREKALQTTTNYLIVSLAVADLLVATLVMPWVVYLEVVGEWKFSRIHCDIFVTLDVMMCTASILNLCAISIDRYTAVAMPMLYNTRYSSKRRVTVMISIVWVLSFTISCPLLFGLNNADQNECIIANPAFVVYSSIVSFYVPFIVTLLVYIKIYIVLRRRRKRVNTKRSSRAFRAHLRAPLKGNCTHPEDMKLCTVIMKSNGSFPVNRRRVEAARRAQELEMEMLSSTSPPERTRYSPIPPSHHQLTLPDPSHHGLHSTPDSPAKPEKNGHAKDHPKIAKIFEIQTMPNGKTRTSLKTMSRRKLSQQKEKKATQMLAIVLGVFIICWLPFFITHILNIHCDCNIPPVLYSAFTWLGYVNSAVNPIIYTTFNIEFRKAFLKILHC
Data set [3] has as its target human 5-HT6 receptor (Homo sapiens, UniProt P50406). Nature of the data set: Radioligand binding assay, [3H]-LSD, HEK293 cell membranes.
Data set [4] has as its target human 5-HT7b receptor (Homo sapiens, UniProt P34969). The experiment in a line: Radioligand binding assay, [3H]-5-CT, HEK293 cell membranes.

This passage reports melting point and Ki results from paper PMC5945563 (Chemistry Central Journal, 2018).

A word on the melting point: it is the temperature, or range, at which the solid turns liquid. One may read the pKi as the Ki on a negative log10 scale, so that one unit is a factor of ten. Low values mean a high Ki, high ones a low Ki.

pKi: −log10 of the molar value. Counter-ions that a name gives are not always drawn.

Chain of human 5-HT7b receptor (P34969 1-432 limits assumed): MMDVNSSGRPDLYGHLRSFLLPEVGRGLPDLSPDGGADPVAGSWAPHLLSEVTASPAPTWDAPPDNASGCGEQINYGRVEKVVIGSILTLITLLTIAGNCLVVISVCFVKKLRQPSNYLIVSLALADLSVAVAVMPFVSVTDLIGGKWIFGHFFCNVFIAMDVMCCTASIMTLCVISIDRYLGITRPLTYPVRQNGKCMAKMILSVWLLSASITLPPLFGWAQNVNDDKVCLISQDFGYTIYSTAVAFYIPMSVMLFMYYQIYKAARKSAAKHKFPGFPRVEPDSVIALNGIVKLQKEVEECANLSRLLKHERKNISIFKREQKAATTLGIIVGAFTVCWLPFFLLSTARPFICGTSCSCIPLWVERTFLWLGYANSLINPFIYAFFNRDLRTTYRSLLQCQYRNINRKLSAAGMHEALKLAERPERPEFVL
Chain of human 5-HT6 receptor (P50406 whole entry): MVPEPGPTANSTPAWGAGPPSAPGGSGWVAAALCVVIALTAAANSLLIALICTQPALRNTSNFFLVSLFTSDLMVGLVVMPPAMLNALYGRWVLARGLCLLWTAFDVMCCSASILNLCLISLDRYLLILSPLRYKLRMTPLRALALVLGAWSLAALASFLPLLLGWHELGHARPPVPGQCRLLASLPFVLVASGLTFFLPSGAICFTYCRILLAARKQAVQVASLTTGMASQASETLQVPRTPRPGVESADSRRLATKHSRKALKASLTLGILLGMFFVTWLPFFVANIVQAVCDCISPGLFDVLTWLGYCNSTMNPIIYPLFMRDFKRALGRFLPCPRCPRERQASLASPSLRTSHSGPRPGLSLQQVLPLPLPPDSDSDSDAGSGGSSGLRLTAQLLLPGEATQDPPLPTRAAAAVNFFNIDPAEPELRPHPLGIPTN

For the molecule `O=S(=O)(NCCCCN1CCN(c2ccccc2)CC1)c1cc2ccccc2cn1` (as salt: hydrochloride) [Compound 1, N-(4-(4-phenyl)piperazin-1-yl)butyl)isoquinoline-3-sulfonamide hydrochloride], the melting point was in the range of 198 to 199 °C.

In turn, `Cl.O=S(=O)(NCCCCN1CCN(c2cccc(Cl)c2)CC1)c1cc2ccccc2cn1` [Compound 2, N-(4-(4-(3-chlorophenyl)piperazin-1-yl)butyl)isoquinoline-3-sulfonamide hydrochloride] yielded a melting point of 246 to 247 °C. The molecule also showed a pKi in data set [1] of 7.42. Further, the pKi in data set [2] was 7.33. For the same molecule, the pKi in data set [3] was 6.36. The molecule also gave a pKi in data set [4] of 7.31.

For `Cc1cccc(N2CCN(CCCCNS(=O)(=O)c3cc4ccccc4cn3)CC2)c1C.Cl` [Compound 4, N-(4-(4-(2,3-dimethylphenyl)piperazin-1-yl)butyl)isoquinoline-3-sulfonamide hydrochloride], the melting point fell in the range of 215 to 216 °C. Also, in data set [1], the pKi was 7.14. This molecule had a pKi in data set [2] of 7.64. This molecule also gave a pKi in data set [3] of 6.04. This molecule also showed a negative-log Ki (pKi) in data set [4] of 7.07.
